In patent US11542298B2, “Hydroxysteroid compounds, their intermediates, process of preparation, composition and uses thereof” (Epirium Bio Inc., priority 2014, dated 2023):
Several values for one entry are separate records, joined by “and”; a condition that tells them apart may be missing. Equal values may be shown once.

Legend:
AMP KINASE [1] = assay: AMP KINASE phosphorylation, cell-based fluorescent ELISA (BioAssay Systems)
Protocol: The compounds of the present invention were tested for their activity on AMP KINASE. The activity on AMP KINASE was evaluated by quantitative fluorescent immunoenzymatic assay of AMP KINASE phosphorylation status in cultured cells. The 5-AMP-activated protein kinase (AMP KINASE) is a key sensor of intracellular energy balance. AMP KINASE is activated in response to an increase in the AMP/ATP ratio which can be caused by a number of factors such as muscle contraction, starvation, or hypoxia. AMP KINASE is a heterotrimeric protein complex comprising of α—(63 kDa), β—(38 kDa) and γ—(38 kDa) subunits. For each subunit, isoforms have been identified (α1, α2, β1, β2, γ1, γ2, γ3) which theoretically allow the formation of 12 different proteins. The α-subunit contains a serine/threonine kinase domain and the regulatory subunits contain binding sites for AMP and ATP (γ-subunit) and for glycogen (β-subunit). AMP KINASE is activated by phosphorylation on Thr-172 within the catalytic domain. AMP binding results in a 2 to 5-fold increase in AMP KINASE activity compared to the basal level. Binding of AMP to the γ-subunit causes allosteric activation of the kinase and induces a conformational change in the kinase domain that protects AMP KINASE from dephosphorylation of Thr-172.
BioAssay Systems' cell-based ELISA measure phosphorylated AMP KINASE in whole cells and normalizes the signal to the total protein content. The antibody recognizes both α-subunits and, thus, can be used for cells from all tissues (human, mouse, rat). This simple and efficient assay eliminates the need for cell lysate preparation and can be used to study AMP KINASE regulation in short-term and long-term assays. In this assay, cells grown in 96-well plates are fixed and permeabilized in the wells. AMP KINASE phosphorylation (pAMPK) is measured using a fluorescent ELISA followed by total protein measurement in each well.
A few illustrative compounds of the present invention were tested at 10 nM and the AMPkinase activation of the compounds is listed at Table 2: […]

AMP KINASE [2] = assay: AMP KINASE activation, cell based ELISA in Hepatoma (Hep 2) liver cells; conditions: 30 m, over baseline of 100 (DMSO control)
Protocol: AMP KINASE activation potential of the compounds was evaluated using cell based ELISA·Hepatoma (Hep 2) liver cells were maintained in a T 75 culture flask-containing 25 mM DMEM+10% fetal calf serum. The cells were maintained in a T 75 culture flask-containing medium (DMEM+10% fetal calf serum). On reaching a confluence of 70 to 80%, the cells were seeded in a 96 well plate at a density of 40,000 cells per well in 25 mM DMEM+10% FCS medium. The plates were then incubated at 37° C. with 5% CO2 for 24 hours. Various concentrations of drugs were prepared in DMSO and diluted to required concentration with the medium and incubated at 37° C. with 5% CO2 for 30 min and 1 h for Epicatechin analogs and 11-BHP analogs respectively. Metformin was used as positive control·Cells were fixed with 4% formaldehyde for 30 minutes at room temperature and washed three times with PBS containing 0.1% Triton X-100. Endogenous peroxidase was quenched with 1% H2O2 in PBS-T (0.1% Tween 20) for 30 minutes and washed three times in PBS-T. Cells were blocked with 1% BSA in PBS-T for 1 hour. The cells were incubated with 1:1000 dilution primary antibody (Phospho-AMPKα ([…]) Rabbit mAb, Cell Signaling in PBS-T containing 5% BSA at 4° C. overnight. The cells were then washed three times with PBS-T for 5 minutes and incubated with 1:1000 dilution secondary antibody (Anti-rabbit IgG, HRP-linked Antibody, Cell Signaling) in PBS-T with 1% BSA for 1 hour at RT·Cells were washed three times with PBS-T for 5 minutes The cells were incubated with 100 μl TMB substrate solution for 30 minutes and the reaction was stopped with 100 μl of 2N H2SO4. Then the plate was read at 450 nm using ELISA plate reader and absorbance recorded. % activity was calculated using DMSO control as 100%.

With `C[C@]12CCC(=O)NC1=CCC1C2[C@@H](O)C[C@]2(C)C(=O)CCC12` (stereo partly drawn) [Compound 1005, (4aR,5S,6aS)5-hydroxy-4a,6a-dimethyl-4,4a,4b,5,6,6a,9,9a,9b,- 10-decahydro-1H-indeno[5,4-f]-quinoline-2,7(3H,8H)-dione] the “AMPKinase Activation at 10 nM” value (AMP KINASE [1]) was 1.85.

With `CC(=O)C1CCC2C3CC=C4NC(=O)CC[C@]4(C)C3[C@@](C)(O)C[C@]12C` (stereo partly drawn) [Compound 1008, (4aR,5S,6aS)-7-acetyl-4,4a,4b,5,- 6,6a,7,8,9,9a,9b,10-dodecahydro-5-hydroxy-4a,5,6a-trimethyl-1H-indeno[5,4-f]quinolin-2(3H)-one] the “AMPKinase Activation at 10 nM” value (AMP KINASE [1]) was 1.97.

For `C[C@]12C=CC(=O)C=C1CCC1C2[C@@H](O)C[C@@]2(C)C1CC[C@@H]2C(=O)O` (stereo partly drawn) [Compound 1013, (10R,11S,13S,17S)-11-hydroxy-10,13-dimethyl-3-oxo-6,7,8,9,- 10,11,12,13,14,15,16,17-dodeca-hydro-3H-cyclopenta[a]-phenan-threne-17-carboxylic acid], the “AMPKinase Activation at 10 nM” value (AMP KINASE [1]) was 1.79.

In the case of `CN(C)C(=O)[C@H]1CCC2C3CCC4=CC(=O)C=C[C@]4(C)C3[C@@H](O)C[C@@]21C` (stereo partly drawn) [Compound 1014, (10R,11S,13S,17S)-11-hydroxy-N,N,10,13-tetramethyl-3-oxo-6,7,8,9,10,11,12,13,14,15,16,17-dodecahydro-3H-cyclopenta[a]-phenanthrene-17-carboxamide], the “AMPKinase Activation at 10 nM” value (AMP KINASE [1]) was 1.80.

In the case of `CC(=O)[C@H]1CCC2C3CCC4=CC(=O)C=C[C@]4(C)C3[C@@H](O)C[C@@]21C` (stereo partly drawn) [Compound 1015, (10R,11S,13S,17S)-17-acetyl-11-hydroxy-10,13-dimethyl-6,7,8,9,- 10,11,12,13,14,13,16,17-dodeca-hydro-3H-cyclopenta[a]-phenan-thren-3-one], the “AMPKinase Activation at 10 nM” value (AMP KINASE [1]) was 2.23.

`CC(O)[C@H]1CCC2C3CCC4=CC(=O)C=C[C@]4(C)C3[C@@H](O)C[C@@]21C` (stereo partly drawn) [Compound 1016, (10R,11S,13S,17S)-11-hydroxy-17-((R)-1-hydroxyethyl)-10,13-dimethyl-6,7,8,9,10,11,12,13,- 14,15,16,17-dodecahydro-3H-cyclopenta[a]phenanthren-3-one] was tested, and the “AMPKinase Activation at 10 nM” value (AMP KINASE [1]) was 2.38.

With `C[C@]12CCC(=O)NC1=CCC1C2[C@@H](O)C[C@@]2(C)C1CCC21OCCO1` (stereo partly drawn) [Compound 1017, (4a′R,5′S,6a′S)-5′-hydroxy-4a′,6a′-dimethyl-3′,4′,4a′,4b′,5′,6′,6a′,8′,- 9′,9a′,9b′,10′-dodecahydrospiro-[[1,3]dioxolane-2,7′-indeno[5,4-f]-quinolin]-2′(1′H)-one] the “AMPKinase Activation at 10 nM” value (AMP KINASE [1]) was 2.08.

For `C[C@]12CCC(=O)NC1=CCC1C2[C@](C)(O)C[C@]2(C)C(=O)CCC12` (stereo partly drawn) [Compound 1018, (4aR,5R,6aS)-5-hydroxy-4a,5,6a-trimethyl-4,4a,4b,5,6,6a,9,9a,9b,- 10-decahydro-1H-indeno[5,4-f]-quinoline-2,7(3H,8H)-dione], the “AMPKinase Activation at 10 nM” value (AMP KINASE [1]) was 2.19.

`C[C@]12C[C@H](O)C3C(CC=C4NC(=O)CC[C@@]43C)C1CCC2O` (stereo partly drawn) [Compound 1019, (4aR,5S,6aS)-5,7-dihydroxy-4a,6a-dimethyl-4,4a,4b,5,6,6a,- 7,8,9,9a,9b,10-dodecahydro-1H-indeno[5,4-f]quinolin-2(3H)-one] was tested, and the “AMPKinase Activation at 10 nM” value (AMP KINASE [1]) was 2.23.

`C[C@]12CCC(=O)NC1=CCC1C2[C@@H](O)C[C@]2(C)/C(=N\O)CCC12` (stereo partly drawn) [Compound 1021, (4aR,5S,6aS,Z)-5-hydroxy-7-(hydroxyimino)-4a,6a-dimethyl-4,4a,4b,5,6,6a,7,8,9,9a,9b,10-dodecahydro-1H-indeno[5,4-f]-quinolin-2(3H)-one] was tested, and the “AMPKinase Activation at 10 nM” value (AMP KINASE [1]) was 2.23.

For `CN1C(=O)CC[C@@]2(C)C1=CCC1C3CCC(O)[C@@]3(C)C[C@H](O)C12` (stereo partly drawn) [Compound 1022, (4aR,5S,6aS)-5,7-dihydroxy-1,4a,6a-trimethyl-4,4a,4b,5,6,6a,- 7,8,9,9a,9b,10-dodecahydro-1H-indeno[5,4-f]quinolin-2(3H)-one], the “AMPKinase Activation at 10 nM” value (AMP KINASE [1]) was 2.87.

With `C[C@]12CCC(=O)NC1CCC1C3CCC(O)[C@@]3(C)C[C@H](O)C12` (stereo partly drawn) [Compound 1023, (4aR,5S,6aS)-5,7-dihydroxy-4a,6a-dimethyltetradecahydro-1H-indeno[5,4-f]quinolin-2(3H)-one] the “AMPKinase Activation at 10 nM” value (AMP KINASE [1]) was 2.46.

With `CC1([C@H]2CCC3C4CC=C5NC(=O)CC[C@]5(C)C4[C@@H](O)C[C@@]32C)OCCO1` (stereo partly drawn) [Compound 1025, (4aR,5S,6aS,7S)-5-hydroxy-4a,6a-dimethyl-7-(2-methyl-1,3-dioxolan-2-yl)-4,4a,4b,5,6,6a,- 7,8,9,9a,9b,10-dodecahydro-1H-indeno[5,4-f]quinolin-2(3H)-one] the “AMPKinase Activation at 10 nM” value (AMP KINASE [1]) was 2.11.

In the case of `CC1([C@H]2CCC3C4CC=C5NC(=O)CC[C@]5(C)C4[C@@](C)(O)C[C@@]32C)OCCO1` (stereo partly drawn) [Compound 1026, (4aR,5S,6aS,7S)-5-hydxoxy-4a,5,6a-trimethyl-7-(2-methyl-1,3-dioxolan-2-yl)-4,4a,4b,5,6,6a,- 7,8,9,9a,9b,10-dodecahydro-1H-indeno[5,4-f]quinolin-2(3H)-one], the “AMPKinase Activation at 10 nM” value (AMP KINASE [1]) was 1.69 and 2.17.

`C[C@]12CCC(=O)NC1=CCC1C2[C@@H](O)C[C@@]2(C)C1CC[C@@H]2C(=O)O` (stereo partly drawn) [Compound 1027, (4aR,5S,6aS,7S)-5-hydroxy-4a,6a-dimethyl-2-oxo-2,3,4,4a,4b,5,6,- 6a,7,8,9,9a,9b,10-tetradecahydro-1H-indeno[5,4-f]quinoline-7-carboxylic acid] was tested, and the “AMPKinase Activation at 10 nM” value (AMP KINASE [1]) was 1.85.

With `COc1ccc2c(c1)CCC1C2[C@@H](O)C[C@]2(C)C(C(C)O)CCC12` (stereo partly drawn) [Compound 1030, (11S,13S)-17-(1-hydroxyethyl)-3-methoxy-13-methyl-7,8,9,11,12,- 13,14,15,16,17-decahydro-6H-cyclopenta[a]phenanthren-11-ol] the “AMPKinase Activation at 10 nM” value (AMP KINASE [1]) was 1.51.

With `Cc1ccc(O)c2c1C1C(CC2)C2CC[C@H](C(=O)O)[C@@]2(C)C[C@@H]1O` (stereo partly drawn) [Compound 1035, (11S,13S,17S)-4,11-dihydroxy-1,13-diinethyl-7,8,9,11,12,13,- 14,15,16,17-decahydro-6H-cyclopenta[a]phenanthrene-17-carboxylic acid] the “AMPKinase Activation at 10 nM” value (AMP KINASE [1]) was 1.76.

For `CC(C)(O)[C@H]1CCC2C3CC=C4NC(=O)CC[C@]4(C)C3[C@@H](O)C[C@@]21C` (stereo partly drawn) [Compound 1038, (4aR,5S,6aS,7S)-5-hydroxy-7-(2-hydroxypropan-2-yl)-4a,6a-dimethyl-4,4a,4b,5,6,6a,7,8,9,- 9a,9b,10-dodecahydro-1H-indeno-[5,4-f]quinolin-2(3H)-one], the “AMPKinase Activation at 10 nM” value (AMP KINASE [1]) was 1.70.

`CC(=O)C1CC[C@H]2[C@@H]3CCC4=CC(=O)CC[C@]4(C)[C@H]3[C@@H](O)C[C@]12C` (stereo partly drawn) [Compound 1040, (8S,9S,10R,11S,13S,14S)-17-acetyl-11-hydroxy-10,13-dimethyl-6,7,8,9,10,11,12,13,- 14,15,16,17-dodecahydro-1H-cyclopenta[a]phenanthren-3(2H)-one] was tested, and the “% pAMPK” value (AMP KINASE [2]; 0.1 nM) was 118%.

With `CN(C)C(=N)N=C(N)N` [Metformin, reference compound] the “% pAMPK” value (AMP KINASE [2]; 2 mM) was 121%.
